What follows are compounds tested on P. falciparum 3D7 growth, pLDH absorbance (assay: P. falciparum 3D7 growth inhibition, dose response, strain 3D7 (AID 2305)).
Work on CCCC(C)Nc1nc(C)cc(N[C@@H](Cc2ccccc2)C(=O)NCc2ccc(C)cc2)n1 (stereo partly specified) yielded an IC50 of 1120 nM. CCCN(CC1CC1)c1ncc(-c2cccc(CNCCC3CCCN3C)c2)cn1 (stereo unspecified) was tested, and the IC50 was 750 nM. CCN(CC)c1ccccc1CNC(=O)c1cc(Cl)c(N)cc1OC gave an IC50 of 210 nM. Work on NC(=O)c1ccsc1NC(=O)CNC(c1ccccc1)c1ccccc1 yielded an IC50 of 940 nM. With CC1CCCN(Cc2cc(Cl)cc(Cl)c2O)C1 (stereo unspecified) the IC50 was 930 nM. Work on CCCCCC(C)N=C(Nc1ccc(C#N)cc1O)Nc1cccc(Cl)c1Cl (stereo unspecified) yielded an IC50 of 800 nM. Compound Cc1cc(C(=O)Nc2ccc3c(ccn3C3CCCN(Cc4ccc(C(F)(F)F)cc4F)CC3)c2)no1 (stereo unspecified) has an IC50 of 760 nM. For O=C(NCCN1CCOCC1)c1ccc(-c2ccc(CNCCCc3ccccc3)cc2)nc1, the IC50 was 780 nM. COc1ccc(-c2ccnc(-c3cccc(-c4ccccn4)n3)c2)cc1 gave an IC50 of 820 nM. With Cc1cc(CN2C(=O)C(c3ccccc3)(c3ccccc3)N=C2N)c(C(F)(F)F)o1 the IC50 was 960 nM. With CCCCCCCc1c(C)[nH]c2cc(OC)ccc2c1=O the IC50 was 60 nM. With Cc1cc(OCCCN2CCC(NS(=O)(=O)c3ccc(C(F)(F)F)cc3)CC2)c2ccccc2n1 the IC50 was 1220 nM. COc1ccc2nccc([C@@H](O)CN3CCC(NCc4nc5ccccc5s4)CC3)c2c1 was tested, and the IC50 was 930 nM. CC(CN(C)C)C(=O)Nc1cccc(-c2ccc(-c3nc4ccc(F)cc4[nH]3)s2)c1 (stereo unspecified) gave an IC50 of 800 nM. COc1cc(Cl)c(C)cc1N(Cc1ccccc1-c1ccccc1)S(=O)(=O)c1ccc(C(F)(F)F)cc1 gave an IC50 of 1050 nM. Cn1ccc(-c2cccc(Nc3ccnc4cc(-c5nccs5)ccc34)c2)n1 showed an IC50 of 410 nM. For COc1ccc2nccc([C@@H](O)CN3CCC(NCCOc4ccc(F)cc4[N+](=O)[O-])CC3)c2c1, the IC50 was 120 nM. Brc1ccc(Nc2nc(NCC3CCCO3)c3ccccc3n2)cc1 (stereo unspecified) showed an IC50 of 580 nM. For CC1(C)S(=O)(=O)CC(O)CS1(=O)=O, the IC50 was 470 nM. Work on COc1ccc(CNCCc2cccs2)cc1-c1ccc(OC)c(S(=O)(=O)NCCN2CCCC2)c1 yielded an IC50 of 1410 nM. With COC(=O)c1ccc(CC(C)NCC(O)c2ccc(F)c(Cl)c2)cc1 (stereo unspecified) the IC50 was 860 nM. Compound CN(C)C(=O)O[C@@H]1CN[C@H](C#Cc2cc3ncnc(Nc4ccc5c(cnn5Cc5cccc(F)c5)c4)c3s2)C1 has an IC50 of 760 nM. Work on COc1ccc2nc3cc(Cl)ccc3c(Nc3ccc(C(=O)O)cc3)c2c1 yielded an IC50 of 300 nM. Nc1nc(Nc2ccc(Cl)cc2)nc2ccccc12 showed an IC50 of 730 nM. In the case of O=C(NCCCCN1CCC(c2ccc3c(c2O)CCCC3)CC1)c1ccc(NC(=O)c2ccc(Cl)cc2)cc1, the IC50 is reported as 240 nM. With CS(=O)(=O)NCCCNCc1ccc(-c2cccc(-c3nc4ccc(F)cc4[nH]3)c2)cc1 the IC50 was 800 nM. CCN(CCNS(C)(=O)=O)c1ccc(N)c(C)c1 gave an IC50 of 880 nM. CCN(CCCN1CCCCC1)c1cc(C)nc(Nc2ccc(OC)cc2)n1 gave an IC50 of 620 nM. With Cn1c(=O)c(-c2c(Cl)cccc2Cl)cc2cnc(Nc3ccc(N4CCOCC4)cc3)nc21 the IC50 was 160 nM. For COc1cc2c(cc1OC)CN(c1cc(N)c3cc(OC)c(OC)cc3n1)CC2, the IC50 was 550 nM. In the case of CC(=O)Oc1c(C2C=CCCC2)c(OC(C)=O)c2ccccc2c1OC(C)=O (stereo unspecified), the IC50 is reported as 600 nM. CN=C(NC)c1cccc(NC(=O)C=Cc2ccc(C=CC(=O)Nc3cccc(C(=NC)NC)c3)cc2)c1 showed an IC50 of 160 nM. CC(Cc1ccc(OCCCCOc2ccccc2)cc1)NCCC1CCCN1C (stereo unspecified) gave an IC50 of 40 nM. Cc1cc(-c2ccc(O)c(CNC3CCCCC3)c2)cnc1N was tested, and the IC50 was 200 nM. CC(=O)Nc1cccc(CNCc2ccc(-c3cnc(N4CCCC(c5ccccc5)C4)nc3)cc2)c1 (stereo unspecified) showed an IC50 of 1190 nM. In the case of CCN(CC)CCCNc1nccc(N2CCc3ncnc(Nc4ccc(OCc5cccc(F)c5)c(Cl)c4)c3C2)n1, the IC50 is reported as 110 nM. CC(=NNC(N)=O)C1=C(O)C(c2ccccc2)N(C2CCCCC2)C1=O (stereo unspecified) was tested, and the IC50 was 30 nM. In the case of COc1ccc2c(=O)c3ccc(OC)cc3[nH]c2c1, the IC50 is reported as 810 nM. For CCOc1cc(Cc2cnc(N)nc2N)cc(OCC)c1O, the IC50 was 1170 nM. Work on NC1=NC(C=Cc2ccccc2)N(OCCCCCCON2C(N)=NC(N)=NC2C=Cc2ccccc2)C(N)=N1 (stereo unspecified) yielded an IC50 of 610 nM. Work on O=C(Nc1cccc(-c2nn3ncccc3c2-c2ccnc(Nc3cccc(C(F)(F)F)c3)n2)c1)c1c(F)cccc1F yielded an IC50 of 650 nM.

Reference: PubChem BioAssay AID2305 (GlaxoSmithKline (GSK), 2010)
